Assay results: US8822449B2, “Substituted aminoindanes and analogs thereof, and the pharmaceutical use thereof” (Sanofi, priority 2008, dated 2014)

Target: T1, sodium-proton exchanger of subtype 3 (NHE3) (Homo sapiens, UniProt P48764)
T1 construct: expressed in transfected cells
T1 sequence (P48764 26-834): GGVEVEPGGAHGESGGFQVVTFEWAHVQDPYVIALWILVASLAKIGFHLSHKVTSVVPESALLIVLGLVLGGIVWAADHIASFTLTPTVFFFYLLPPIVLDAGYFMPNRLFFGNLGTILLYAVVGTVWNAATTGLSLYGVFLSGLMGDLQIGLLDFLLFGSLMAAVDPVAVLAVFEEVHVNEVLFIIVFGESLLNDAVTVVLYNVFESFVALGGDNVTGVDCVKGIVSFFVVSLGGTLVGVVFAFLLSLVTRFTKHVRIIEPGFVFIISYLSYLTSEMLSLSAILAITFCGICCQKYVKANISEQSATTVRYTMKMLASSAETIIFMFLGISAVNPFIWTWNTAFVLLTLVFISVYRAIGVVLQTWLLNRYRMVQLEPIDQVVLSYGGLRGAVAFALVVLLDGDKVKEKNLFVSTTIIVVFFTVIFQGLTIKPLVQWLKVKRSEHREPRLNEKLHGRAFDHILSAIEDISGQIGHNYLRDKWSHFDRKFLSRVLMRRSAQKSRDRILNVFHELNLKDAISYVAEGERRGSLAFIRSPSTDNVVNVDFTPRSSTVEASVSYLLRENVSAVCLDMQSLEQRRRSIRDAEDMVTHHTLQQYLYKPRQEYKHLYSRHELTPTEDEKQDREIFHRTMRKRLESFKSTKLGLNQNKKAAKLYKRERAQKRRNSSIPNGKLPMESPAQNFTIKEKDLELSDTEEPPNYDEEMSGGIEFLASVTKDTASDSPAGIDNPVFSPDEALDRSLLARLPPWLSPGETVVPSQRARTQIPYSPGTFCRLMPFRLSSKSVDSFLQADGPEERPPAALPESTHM
Assay: Recovery of intracellular pH (pHi) after acidification in LAP1 cells stably expressing NHE3 (BCECF fluorescence, FLIPR)
Format: cell-based
Details: Activity range (inhibitory effect on NHE3), LAP1 cells stably expressing NHE3; pH recovery after acidification; range 1 is % inhibition at 10 μM

| SMILES | IC50 [µM] |
| --- | --- |
| Clc1cc(Cl)c2c(c1)[C@H](Oc1ccc(-n3cncn3)cc1)[C@@H](N1C[C@H]3CC[C@@H](C1)N3)C2 [Example 2, 3-[trans-(1S,2S)-4,6-dichloro-1-(4-[1,2,4]triazol-1-ylphenoxy)indan-2-yl]-3,8-diazabicyclo[3.2.1]octane] | 1 to 10 |

Same assay, conditions: LAP1 cells stably expressing NHE3; pH recovery after acidification; range 1 is % inhibition at 10 μM; read-out: Activity range (inhibitory effect on NHE3)

| SMILES | inhibition at 10 µM [%] | IC50 [µM] |
| --- | --- | --- |
| N[C@@H]1CCCN([C@H]2CCc3ccccc3[C@@H]2Oc2ccccc2N2CCOCC2)C1 (racemic) [Example 48, (R)-1-[rac-trans-(1,2)-1-(2-morpholin-4-ylphenoxy)-1,2,3,4-tetrahydronaphthalen-2-yl]piperidin-3-ylamine] | 20 to 50 | – |
| N[C@@H]1CCCN([C@H]2CCc3ccccc3[C@@H]2Oc2ccc(Cl)cc2)C1 (racemic) [Example 66, (R)-1-[rac-trans-(1,2)-1-(4-chlorophenoxy)-1,2,3,4-tetrahydronaphthalen-2-yl]piperidin-3-ylamine] | 20 to 50 | – |
| N[C@H]1CCCN([C@H]2CCc3ccccc3[C@@H]2Oc2cccc(Cl)c2)C1 (racemic) [Example 165, (S)-1-[rac-trans-(1,2)-1-(3-chlorophenoxy)-1,2,3,4-tetrahydronaphthalen-2-yl]piperidin-3-ylamine] | 20 to 50 | – |
| CN(C)Cc1ccc(O[C@H]2c3ccccc3CC[C@@H]2N2CCC[C@@H](N)C2)cc1 (racemic) [Example 67, (R)-1-[rac-trans-(1,2)-1-(4-dimethylaminomethylphenoxy)-1,2,3,4-tetrahydronaphthalen-2-yl]piperidin-3-ylamine] | 20 to 50 | – |
| CS(=O)(=O)c1ccc(O[C@@H]2c3ccccc3C[C@H]2NCC2CC2)cc1 (racemic) [Example 624, Cyclopropylmethyl-[1-(4-methanesulfonylphenoxy)indan-2-yl]amine] | – | 1 to 10 |
| N[C@@H]1CCCN([C@H]2CCc3ccccc3[C@@H]2Oc2cccc3[nH]nnc23)C1 (racemic) [Example 29, (R)-1-[rac-trans-(1,2)-1-(1H-benzotriazol-4-yloxy)-1,2,3,4-tetrahydronaphthalen-2-yl]piperidin-3-ylamine] | – | 1 to 10 |
| N#Cc1ccc(O[C@H]2c3ccccc3CC[C@@H]2N2CCC[C@H](N)C2)cc1 (racemic) [Example 535, 4-[rac-trans-(1,2)-2-((S)-3-aminopiperidin-1-yl)-1,2,3,4-tetrahydronaphthalen-1-yloxy]benzonitrile] | – | 1 to 10 |
| N#Cc1ccc(O[C@H]2c3cc(Cl)cc(F)c3C[C@@H]2N2CC[C@@H](O)C2)c(F)c1 [Example 557, 4-[trans-(1S,2S)-6-chloro-4-fluoro-2-((R)-3-hydroxypyrrolidin-1-yl)indan-1-yloxy]-3-fluorobenzonitrile] | – | 1 to 10 |
| CS(=O)(=O)c1ccc(O[C@H]2c3ccccc3C[C@@H]2N2CCC[C@@H](NC(=O)C(F)(F)F)C2)cc1 [Example 354, 2,2,2-trifluoro-N-{(R)-1-[trans-(1S,2S)-1-(4-methanesulfonylphenoxy)indan-2-yl]piperidin-3-yl}acetamide] | 20 to 50 | – |
| O=C1COC(=O)N1c1ccc(O[C@H]2c3cc(Cl)cc(Cl)c3C[C@@H]2N2CC[C@@H](O)C2)cc1 [Example 427, 3-{4-[(1S,2S)-4,6-dichloro-2-((R)-3-hydroxypyrrolidin-1-yl)indan-1-yloxy]phenyl}oxazolidine-2,4-dione] | – | 1 to 10 |
| CC(=O)Nc1cccc(O[C@H]2c3ccccc3CC[C@@H]2N2CCC[C@@H](N)C2)c1 (racemic) [Example 676, N-{3-[rac-trans-(1,2)-2-((R)-3-aminopiperidin-1-yl)-1,2,3,4-tetrahydronaphthalen-1-yloxy]phenyl}acetamide] | – | 1 to 10 |
| CS(=O)(=O)c1ccc(O[C@H]2c3cc(F)ccc3C[C@@H]2N2CCNCC2)cc1 (racemic) [Example 294, 1-[rac-trans-(1,2)-6-fluoro-1-(4-methanesulfonylphenoxy)indan-2-yl]piperazine] | – | 1 to 10 |
| N[C@@H]1CCCN([C@H]2CCc3ccccc3[C@@H]2Oc2cccc(OC(F)F)c2)C1 (racemic) [Example 56, (R)-1-[rac-trans-(1,2)-1-(3-difluoromethoxyphenoxy)-1,2,3,4-tetrahydronaphthalen-2-yl]piperidin-3-ylamine] | 20 to 50 | – |
| CO[C@@H]1CCN(C2Cc3ccccc3C2Oc2cccc(NC(C)=O)c2)C1 (mixture of isomers) [Example 682, N-{3-[rac-trans-(1,2)-2-((R)-3-methoxypyrrolidin-1-yl)indan-1-yloxy]phenyl}acetamide] | – | 1 to 10 |
| N[C@@H]1CCCN([C@@H]2Cc3ccccc3[C@H]2Oc2ccc(Cl)nc2)C1 (racemic) [Example 82, (R)-1-[rac-trans-(1,2)-1-(6-chloropyridin-3-yloxy)indan-2-yl]piperidin-3-ylamine] | – | 1 to 10 |

Now from value to compound:

| inhibition at 10 µM [%] | IC50 [µM] | SMILES |
| --- | --- | --- |
| – | 1 to 10 | N[C@@H]1CCCN([C@@H]2Cc3ccccc3[C@H]2Oc2ccnc3ccccc23)C1 (racemic) [Example 88, (R)-1-[rac-trans-(1,2)-1-(quinolin-4-yloxy)indan-2-yl]piperidin-3-ylamine] |
| – | 1 to 10 | CS(=O)(=O)c1ccc(O[C@H]2c3cc(Cl)cc(Cl)c3C[C@@H]2N2CC(O)C2)cc1 [Example 307, 1-[trans-(1S,2S)-4,6-dichloro-1-(4-methanesulfonylphenoxy)indan-2-yl]azetidin-3-ol] |
| – | 1 to 10 | CC(=O)Nc1cccc(O[C@H]2c3cc(Cl)ccc3C[C@@H]2N2CCNCC2)c1 (racemic) [Example 657, N-[3-(rac-trans-(1,2)-6-chloro-2-piperazin-1-ylindan-1-yloxy)phenyl]acetamide] |
| – | 1 to 10 | O=C1CNC(=O)N1c1ccc(F)c(O[C@H]2c3cc(Cl)cc(F)c3C[C@@H]2N2CC[C@@H](O)C2)c1 [Example 421, 3-{3-[(1S,2S)-6-chloro-4-fluoro-2-((R)-3-hydroxypyrrolidin-1-yl)indan-1-yloxy]-4-fluorophenyl}imidazolidine-2,4-dione] |
| – | 1 to 10 | N#Cc1ccc(O[C@@H]2c3ccccc3C[C@H]2N2C[C@H]3CNC[C@H]3C2)cc1Cl (racemic) [Example 393, 2-chloro-4-[rac-trans-(1,2)-2-(hexahydropyrrolo[3,4-c]pyrrol-2-yl)indan-1-yloxy]benzonitrile] |
| – | < 1 | NC(=O)c1cccc(O[C@@H]2c3ccccc3C[C@H]2N2CCC[C@@H](N)C2)c1 (racemic) [Example 411, 3-[rac-trans-(1,2)-2-((R)-3-aminopiperidin-1-yl)indan-1-yloxy]benzamide] |
| – | 1 to 10 | N[C@H]1CCCN([C@H]2CCc3ccccc3[C@@H]2Oc2cccc3ccc(Cl)nc23)C1 (racemic) [Example 154, (S)-1-[rac-trans-(1,2)-1-(2-chloroquinolin-8-yloxy)-1,2,3,4-tetrahydronaphthalen-2-yl]piperidin-3-ylamine] |
| – | 1 to 10 | COc1cccc(F)c1O[C@@H]1c2ccccc2C[C@H]1N(C)C1CCNCC1 (racemic) [Example 215, [rac-trans-(1,2)-1-(2-fluoro-6-methoxyphenoxy)indan-2-yl]methylpiperidin-4-ylamine] |
| – | < 1 | O=C1CCC(=O)N1c1ccc(O[C@H]2c3cc(Cl)cc(Cl)c3C[C@@H]2N2CC[C@@H](O)C2)c(Cl)c1 [Example 322, 1-{3-chloro-4-[(1S,2S)-4,6-dichloro-2-((R)-3-hydroxypyrrolidin-1-yl)indan-1-yloxy]phenyl}pyrrolidine-2,5-dione] |
